# Measurements: patent publication US4221781A, “Synergistic penicillin-cephalosporin compositions and methods” (priority 1971, dated 1980)
# Experiments:
# Assay type in all cases: cell-based
# [1] = tested on: clinically isolated coliform bacterium; experiment: Example 5: in vitro M.I.C. of IV, various penicillins and 1:1 combinations
# Experimental: (§1) Tryptose phosphate broth, containing the appropriate concentrations of the compounds or of the combination of them, was inoculated with 0.5×10^4 -5×10^4 organisms of the various microorganisms tested and incubated overnight at 37° C. Minimum inhibitory concentrations (M.I.C.) were taken as the concentrations of the compounds or of the combination at which no visible growth occurred.
# Using the same technique as described in Example 1 the in vitro activity of 6[(piperidyl-1)-methyleneamino]-penicillianic acid (IV), of various penicillins, and of 1:1 combinations of IV with these penicillins, was determined against a clinically isolated coliform bacterium.
# [2] = tested on: Klebsiella-Enterobacter (strain 4/71); experiment: Example 10: in vitro M.I.C. of II, cephalosporins and 1:1 combinations; conditions: Klebsiella-Enterobacter strain 4/71; read-out: M.I.C.
# Experimental: as §1
# (§2) Using the same technique as described in Example 1 the in vitro activity of 6-[(hexahydro-1H-azepin-1-yl)methyleneamino]penicillanic acid (II), of various cephalosporins previously mentioned in this specification, and of 1:1 combinations of II with these cephalosporins was determined against a clinically isolated strain of Klebsiella-Enterobacter (strain 4/71)
# [3] = tested on: Proteus (Proteus Mirabilis I 190); experiment: Example 11: in vitro M.I.C. of II, cephalosporins and 1:1 combinations; conditions: Proteus Mirabilis I 190, read-out: M.I.C.
# Experimental: as §1
# as §2, with “cephalosporins” for “cephalosporins previously mentioned in this specification,”, “Proteus (Proteus Mirabilis I 190).” for “Klebsiella-Enterobacter (strain 4/71)”
MIC [2] [µg/mL],MIC [3] [µg/mL],Structure (SMILES),MIC [1] [µg/mL]
–,–,CC1(C)S[C@@H]2[C@H](NC(=O)[C@H](N=[N+]=[N-])c3ccccc3)C(=O)N2[C@H]1C(=O)O [6-(D-α-azidophenylacetamido)penicillanic acid],50
50,12.5,CC(=O)OCC1=C(C(=O)O)N2C(=O)[C@@H](NC(=O)CC#N)[C@H]2SC1 [Cephacetrile],–
12.5,6.25,Cc1nnc(SCC2=C(C(=O)O)N3C(=O)[C@@H](NC(=O)Cn4cnnn4)[C@H]3SC2)s1 [Cephazoline],–
> 100,25,CC(=O)OCC1=C(C(=O)O)N2C(=O)C(NC(=O)Cc3ccccc3)C2SC1 (stereo not drawn) [EPC 807 2/b],–
> 100,50,CC(=O)OCC1=C(C(=O)O)N2C(=O)C(NC(=O)Cc3cccc(Cl)c3)C2SC1 (stereo not drawn) [EPC 820/1b],–
100,12.5,[N-]=[N+]=NCC1=C(C(=O)O)N2C(=O)C(NC(=O)Cc3cccs3)C2SC1 (stereo not drawn) [EPC 821/4II],–

Structure (SMILES),MIC [2] [µg/mL],MIC [3] [µg/mL],MIC [1] [µg/mL]
CC1=C(C(=O)O)N2C(=O)[C@@H](NC(=O)[C@H](N)c3ccccc3)[C@H]2SC1 [Cephalexine],50,25,–
O=C(Cc1cccs1)N[C@@H]1C(=O)N2C(C(=O)[O-])=C(C[n+]3ccccc3)CS[C@H]12 [Cephaloridine],25,6.25,–
